Measurements reported in patent publication US20150320772A1, “USE OF ACETYLSALICYLIC ACID TO PREVENT AND/OR TREAT DIABETIC WOUNDS” (LABORATOIRES URGO, priority 2012, published 2015).

Tests used:
diabetic mice (db/db) = assay: Kinetics of wound closure in diabetic mice (db/db) treated topically with acetylsalicylic acid; type: in vivo; conditions: for wound closure (time to closure): from D3 post-lesion, NaCl control diabetic mice 26 days
Description: These animals are characterized by hyperglycemia, insulin resistance and hypertriglyceridemia, which makes these mice the first choice as models for diabetes of genetic origin. The mice of the “control” group for the db/db mice are heterozygous db/+mice.
(§1) The mouse is anesthetized by means of isoflurane (halogenated anesthetic gas). The dorsal part and the flanks of the mouse are shaved and disinfected and a circular excision of close to 1 cm^2 is made. The connective tissue at the interface of the muscle tissue is removed without damaging the muscle fascia. The skin is totally excised as far as the panniculus carnosus.
The wound thus created is protected by a device such as described in the patent applications filed by Laboratoires Urgo, FR 11 62295 and FR 11 62344, which enables both protection of the wound and observation and evaluation of the healing kinetics, and enables exudate to be collected.
The wound healing process is observed from 0 to 30 days post-lesion. Between 3 and 5 very high resolution standardized digital photographs are taken for each animal. The percentage wound closure is based on changes in surface area calculated for the same injury on the same mouse and for the indicated time points. Thus, the mean calculated for wound healing (as a percentage) over the 3 mice in a group is obtained independently and the statistics are calculated from 3 groups of 3 independent experiments.
as §1, with “As already described above, the mouse” for “The mouse”, “of isoflurane.” for “of isoflurane (halogenated anesthetic gas).”
In the meantime, the reference solution of acetylsalicylic acid is prepared at 5 mM. This solution will be used to prepare the solutions with concentrations of 100 μM, 200 μM, 300 μM, 1 mM, 2 mM, 2.9 mM, 4.8 mM and 5 mM.
Solutions with concentrations of 100 μM, 200 μM, 300 μM, 1 mM, 2 mM, 2.9 mM, 4.8 mM and 5 mM of acetylsalicylic acid are tested.
A volume of between 50 and 500 μl is taken off from each solution and placed in contact with the wound via a device such as described through the patent applications filed by Laboratoires Urgo, FR 11 62295 and FR 11 62344.
It is noteworthy that this placing of a predefined concentration of acetylsalicylic acid in contact with the site of healing is carried out starting from the third day post-lesion. Indeed, it is in this period that the delay in healing appears in the diabetic mice, compared to the “control” mice (FIGS. 1A and 1B). Moreover, in the context of treating diabetic patients, the treated wounds will already be formed and will be arrested in the inflammatory phase. No chronic wounds, and more particularly diabetic wounds, are treated as soon as they appear. Moreover, the inflammatory phase is an indispensable phase in healing, since it enables the damaged area to be cleaned and deterged by virtue of the infiltration of inflammatory cells such as polymorphonuclear neutrophils. It is therefore necessary to retain inflammation to initiate effective healing, and thus to not entirely block this phase. This is why treatment with acetylsalicylic acid is only proposed starting from D3 post-lesion.

diabetic mice (HFD) = assay: Kinetics of cell infiltration into the wound (exudate) of diabetic mice (HFD) treated with acetylsalicylic acid; type: in vivo; conditions: 1000 μM solution, D7 post-lesion, versus control diabetic mice
Description: FIG. 7: Kinetics of cell infiltration into the wound of “control” mice and diabetic mice (HFD) treated with acetylsalicylic acid.
HFD mice are murine models for induced diabetes, produced with C57BL/6 mice of 8 weeks of age. These mice follow a high calorie (high-fat) diet for 16 weeks. […] Unlike db/db mice, the diabetic state in these animals is not of genetic origin. The mice of the “control” group for the HFD mice are mice on a standard diet, also known by the abbreviation “NC”.
The cells from the exudate are recovered from D1 post-lesion until no more exudate is secreted by the wound. In order to determine the kinetics of polymorphonuclear neutrophil infiltration, the cells from the exudate from the lesion are characterized by flow cytometry by immunolabeling relating to the membrane receptors Ly6G, 7/4 (for the polymorphonuclear cells) and F4/80 (for the macrophages). A total of 10 000 events is analyzed for each sample. All the results are given in the form of percentage expression.
FIG. 7 describes the kinetics of cell infiltration carried out on “control” diabetic mice or on those to which has been applied a solution of 1000 μM of acetylsalicylic acid.

[1] = system: human peripheral blood-derived monocytes differentiated into macrophages; assay: Viability of macrophages in vitro in the presence of acetylsalicylic acid (propidium iodide, flow cytometry); conditions: 72 h incubation
Description: Moreover, cell viability tests are carried out on macrophages for various concentrations of acetylsalicylic acid (FIG. 6).
This method of analysis comprises the use of human peripheral blood-derived monocytes placed in culture in RPMI medium, to which is added M-CSF at 10 ng/ml, for 24 hours in order to differentiate them into macrophages. Acetylsalicylic acid is added to the culture medium in a final concentration of 1000 μM or 5000 μM.
Cell mortality is analyzed, after 72 hours of incubation, by flow cytometry by measuring the cytoplasmic incorporation of propidium iodide.
The aim of such a cell viability test carried out in vitro is to verify the harmfulness of the dose administered to the cells found in the wound, and preferably in the present case to macrophages, which are considered to be a type of effector cell in the healing of the lesion being studied.

CC(=O)Oc1ccccc1C(=O)O [acetylsalicylic acid]
effect on the healing kinetics compared with control diabetic mice (diabetic mice (db/db); 100 μM solution, topical): No effect whatsoever | wound closure (time to closure) (diabetic mice (db/db); 300 μM solution, topical): around twenty | resolution of inflammation compared to control diabetic mice (diabetic mice (db/db); 300 μM, 1000 μM and 2000 μM solutions, topical, early phase D3 to D7 post-lesion): very clear acceleration of resolution of inflammation | wound closure (time to closure) (diabetic mice (db/db); 1000 μM solution, topical): around twenty | effect on the healing kinetics compared with control diabetic mice (diabetic mice (db/db); 5000 μM solution, topical): No effect whatsoever | speed of wound closure (overall conclusion) (diabetic mice (db/db); concentration of between 100 μM and 4800 μM, administered from D3 post-lesion): increased speed of wound closure | number of cells infiltrating the site of the lesion (diabetic mice (HFD)): significant reduction | cell toxicity ([1]; 1000 μM): no cell toxicity | reduction of cell viability ([1]; 5000 μM): 20%
